Measurements published in patent publication US9090600B2, “Fungicidal 4-substituted-3-{phenyl[(heterocyclylmethoxy)imino]methyl}-1,2,4-oxadizol-5(4H)-one derivatives” (BAYER INTELLECTUAL PROPERTY GMBH, priority 2011, dated 2015).
Marks after values point to notes of the source that are not given here.

Legend:
[1] = pH 2.7
Phytophthora infestans = type: in vivo; conditions: tomato plants, spray, 500 ppm, grading 5 days after contamination

SMILES | LogP [1] | Eff. % (Phytophthora infestans) [%]
CC(Oc1ccccc1Cl)C(=O)Nc1nc(CO/N=C(/c2ccccc2)c2noc(=O)n2C)cs1 (racemic) [Example 366] | 4.07 [a] | 94
CC(C)CC(C)OC(=O)Nc1cccc(CO/N=C(/c2ccc(F)cc2)c2noc(=O)n2C)n1 (racemic) [Example 383] | 4.77 [a] | 70
CCC(C(=O)Nc1cccc(CO/N=C(/c2ccccc2)c2noc(=O)n2C)n1)c1ccccc1 (racemic) [Example 386] | 4.23 [a] | 80
CC(OCC1CC1)C(=O)Nc1cccc(CO/N=C(/c2ccccc2)c2noc(=O)n2C)n1 (racemic) [Example 390] | 3.78 [a] | 100
Cn1c(/C(=N\OCc2csc(NC(=O)c3ccccc3F)n2)c2ccccc2)noc1=O [Example 27] | 3.44 [a] | 100
Cn1c(/C(=N\OCc2cccc(NC(=O)Cc3ccccc3Cl)n2)c2ccccc2)noc1=O [Example 29] | 3.76 [a] | 100
CCCCCCCC(=O)Nc1cccc(CO/N=C(/c2ccccc2)c2noc(=O)n2C)n1 [Example 32] | 4.71 [a] | 100
CCCOC(=O)Nc1cccc(CO/N=C(/c2ccccc2)c2noc(=O)n2C)n1 [Example 33] | 3.62 [a] | 100
CC(C)CCOC(=O)Nc1nc(CO/N=C(/c2ccccc2)c2noc(=O)n2C)cs1 [Example 47] | 4.06 [a] | 100
CCOCCC(=O)Nc1cccc(CO/N=C(/c2ccccc2)c2noc(=O)n2C)n1 [Example 48] | 2.96 [a] | 98
CC(=O)Nc1cccc(CO/N=C(/c2ccccc2)c2noc(=O)n2C)n1 [Example 52] | 2.44 [a] | 100
Cn1c(/C(=N\OCc2csc(NC(=O)COc3ccc(Br)cc3)n2)c2ccccc2)noc1=O [Example 55] | 3.94 [a] | 100
CCC(C)CCOC(=O)Nc1cccc(CO/N=C(/c2ccccc2)c2noc(=O)n2C)n1 (stereo not drawn) [Example 56] | 4.78 [a] | 100
CCn1c(/C(=N\OCc2cccc(NC(=O)OC3CCCCC3)n2)c2ccccc2)noc1=O [Example 61] | 4.77 [a] | 100
Cn1c(/C(=N\OCc2csc(NC(=O)OCC(C)(C)C)n2)c2ccccc2)noc1=O [Example 72] | 4.01 [a] | 97
Cn1c(/C(=N\OCc2csc(NC(=O)Oc3ccccc3)n2)c2ccccc2)noc1=O [Example 75] | 3.48 [a] | 90
Cn1c(/C(=N\OCc2cccc(NC(=O)CC3CC4CCC3C4)n2)c2ccccc2)noc1=O (stereo not drawn) [Example 78] | 4.39 [a] | 100
Cn1c(/C(=N\OCc2cccc(NC(=O)OCC(C)(C)c3ccccc3)n2)c2ccccc2)noc1=O [Example 79] | 4.71 [a] | 88
Cn1c(/C(=N\OCc2csc(NC(=O)c3ccccc3Br)n2)c2ccccc2)noc1=O [Example 81] | 3.51 [a] | 78
Cc1ccccc1OC(C)C(=O)Nc1nc(CO/N=C(/c2ccccc2)c2noc(=O)n2C)cs1 (stereo not drawn) [Example 82] | 4.12 [a] | 99
Cc1cccc(/C(=N/OCc2cccc(N(C(=O)OC(C)(C)C)C(=O)OC(C)(C)C)n2)c2noc(=O)n2C)c1 [Example 87] | 4.77 [a] | 95
Cn1c(/C(=N\OCc2cccc(NC(=O)OCCc3ccc(F)cc3)n2)c2ccccc2)noc1=O [Example 89] | 4.19 [a] | 99
COc1ccccc1C(=O)Nc1nc(CO/N=C(/c2ccccc2)c2noc(=O)n2C)cs1 [Example 91] | 3.71 [a] | 85

SMILES | LogP [1] | Eff. % (Phytophthora infestans) [%]
CCCCOC(C)C(=O)Nc1cccc(CO/N=C(/c2ccccc2)c2noc(=O)n2C)n1 (stereo not drawn) [Example 93] | 4.3 [a] | 99
CCCCCCCCC(=O)Nc1cccc(CO/N=C(/c2ccccc2)c2noc(=O)n2C)n1 [Example 98] | 5.11 [a] | 99
COc1ccc(CC(=O)Nc2cccc(CO/N=C(/c3cccc(OC)c3)c3noc(=O)n3C)n2)cc1 [Example 101] | 3.51 [a] | 97
Cn1c(/C(=N\OCc2csc(NC(=O)OC3CCCC3)n2)c2ccccc2)noc1=O [Example 103] | 3.76 [a] | 80
Cn1c(/C(=N\OCc2cccc(NC(=O)OCCc3ccccc3Cl)n2)c2ccccc2)noc1=O [Example 106] | 4.56 [a] | 75
CCCCCCOC(=O)Nc1cccc(CO/N=C(/c2ccccc2)c2noc(=O)n2C)n1 [Example 107] | 4.85 [a] | 100
Cn1c(/C(=N\OCc2cccc(NC(=O)OC3CCCC3)n2)c2ccccc2)noc1=O [Example 110] | 4.09 [a] | 98
COc1cccc(/C(=N/OCc2cccc(NC(=O)OC3CCCCC3)n2)c2noc(=O)n2C)c1 [Example 112] | 4.49 [a] | 73
Cn1c(/C(=N\OCc2cccc(NC(=O)c3ccccc3F)n2)c2ccccc2)noc1=O [Example 114] | 3.73 [a] | 100
Cn1c(/C(=N\OCc2cccc(NC(=O)C3CCC3)n2)c2ccccc2)noc1=O [Example 118] | 3.27 [a] | 100
COC(=O)C(C)OC(=O)Nc1cccc(CO/N=C(/c2ccccc2)c2noc(=O)n2C)n1 (stereo not drawn) [Example 119] | 3.17 [a] | 97
Cn1c(/C(=N\OCc2csc(NC(=O)COc3ccc(Cl)cc3Cl)n2)c2ccccc2)noc1=O [Example 123] | 4.23 [a] | 98
C#CCC(C)OC(=O)Nc1cccc(CO/N=C(/c2ccccc2)c2noc(=O)n2CC)n1 (stereo not drawn) [Example 127] | 3.81 [a] | 100
CCC(C)C(=O)Nc1cccc(CO/N=C(/c2ccccc2)c2noc(=O)n2C)n1 (stereo not drawn) [Example 132] | 3.41 [a] | 97
Cc1ccccc1CCOC(=O)Nc1cccc(CO/N=C(/c2ccccc2)c2noc(=O)n2C)n1 [Example 133] | 4.51 [a] | 88
Cn1c(/C(=N\OCc2cccc(NC(=O)c3ccco3)n2)c2ccccc2)noc1=O [Example 134] | 3.13 [a] | 99
Cn1c(/C(=N\OCc2cccc(NC(=O)C3(C)CC3)n2)c2ccccc2)noc1=O [Example 137] | 3.31 [a] | 98
Cn1c(/C(=N\OCc2cccc(NC(=O)Oc3ccccc3)n2)c2ccccc2)noc1=O [Example 138] | 3.73 [a] | 97
Cn1c(/C(=N\OCc2cccc(NC(=O)C(C)(C)C)n2)c2cccc(F)c2)noc1=O [Example 139] | 3.61 [a] | 100
Cc1cccc(/C(=N/OCc2cccc(NC(=O)OC(C)(C)C)n2)c2noc(=O)n2C)c1 [Example 142] | 4.34 [a] | 100
Cn1c(/C(=N\OCc2csc(NC(=O)c3cccc(I)c3)n2)c2ccccc2)noc1=O [Example 143] | 4.19 [a] | 75
Cc1ccc(C(=O)Nc2cccc(CO/N=C(/c3ccccc3)c3noc(=O)n3C)n2)cc1 [Example 144] | 3.85 [a] | 95
